Laboratory results taken from ChEMBL document CHEMBL5143555, “Potentiating the intracellular killing of Staphylococcus aureus by dihydroquinazoline analogues as NorA efflux pump inhibitor” (Bioorg Med Chem, 2022).
≈ marks a conversion by molar mass, not a printed value. Calls of active or inactive are those of the source. No cut-off for these calls is given here.

Experiments:
Staphylococcus aureus [1] = test: Antibacterial activity against Staphylococcus aureus 1199B measured after 24 hrs by Muller Hinton broth based MTT assay; type: functional
Staphylococcus aureus [2] = test: Antibacterial activity against Staphylococcus aureus 1199 measured after 24 hrs by Muller Hinton broth based MTT assay; type: functional
Staphylococcus aureus [3] = test: Antibacterial activity against Staphylococcus aureus K1758 measured after 24 hrs by Muller Hinton broth based MTT assay; type: functional
[4] = target: T1, Quinolone resistance protein NorA (Staphylococcus aureus) (UniProt P0A0J7); test: Inhibition of NorA in Staphylococcus aureus 1199B assessed as accumulation of norfloxacin at 3.9 ug/ml by measuring fluorescence intensity measured at 5 mins interval for 40 mins by fluorescence spectrophotometry; settings: dose 3.9 µg/ml
T1 sequence (whole entry): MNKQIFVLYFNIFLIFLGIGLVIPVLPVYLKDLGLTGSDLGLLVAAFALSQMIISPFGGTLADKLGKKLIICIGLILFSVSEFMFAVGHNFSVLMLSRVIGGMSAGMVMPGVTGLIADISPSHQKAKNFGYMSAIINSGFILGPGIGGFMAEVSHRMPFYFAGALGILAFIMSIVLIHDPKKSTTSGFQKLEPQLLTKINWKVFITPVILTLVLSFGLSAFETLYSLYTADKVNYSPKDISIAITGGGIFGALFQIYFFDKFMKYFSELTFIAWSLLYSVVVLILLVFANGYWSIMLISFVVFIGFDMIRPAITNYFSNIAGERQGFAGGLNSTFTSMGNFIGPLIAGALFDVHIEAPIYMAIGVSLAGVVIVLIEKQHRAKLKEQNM

[5] = target: T1, Quinolone resistance protein NorA (Staphylococcus aureus); test: Inhibition of NorA in Staphylococcus aureus 1199B assessed as potentiation of norfloxacin-induced antibacterial activity by measuring Norfloxacin MIC at sub MIC
[6] = target: T1, Quinolone resistance protein NorA (Staphylococcus aureus); test: Inhibition of NorA in Staphylococcus aureus 1199B assessed as potentiation of norfloxacin-induced antibacterial activity by measuring Norfloxacin MIC at sub MIC relative to norfloxacin MIC alone
[7] = target: T1, Quinolone resistance protein NorA (Staphylococcus aureus); test: Inhibition of NorA in Staphylococcus aureus 1199B assessed as potentiation of norfloxacin-induced antibacterial activity by measuring fractional inhibitory concentration
[8] = target: T1, Quinolone resistance protein NorA (Staphylococcus aureus); test: Inhibition of NorA in Staphylococcus aureus 1199B assessed as potentiation of ethidium bromide-induced antibacterial activity by measuring ethidium bromide MIC at sub MIC
[9] = target: T1, Quinolone resistance protein NorA (Staphylococcus aureus); test: Inhibition of NorA in Staphylococcus aureus 1199B assessed as potentiation of ethidium bromide-induced antibacterial activity by measuring ethidium bromide MIC at sub MIC relative to ethidium bromide MIC alone
[10] = target: T1, Quinolone resistance protein NorA (Staphylococcus aureus); test: Inhibition of NorA in Staphylococcus aureus 1199B assessed as potentiation of ethidium bromide-induced antibacterial activity by measuring fractional inhibitory concentration
[11] = target: T1, Quinolone resistance protein NorA (Staphylococcus aureus); test: Inhibition of NorA in Staphylococcus aureus 1199B assessed as potentiation of 3.1 ug/mL norfloxacin-induced bactericidal activity by measuring log reduction in bacterial count at 7.8 ug/mL measured after 24 hrs by time-kill kinetics assay; settings: dose 7.8 µg/ml
[12] = Cytotoxicity against kidney epithelial cells (unknown origin) assessed as cell viability at 50 ug/mL measured after 24 hrs by alamar blue assay relative to control; type: toxicity, cell-based, Fetal kidney cell; settings: at 50 µg/mL, read-out: Activity
[13] = target: T1, Quinolone resistance protein NorA (Staphylococcus aureus); test: Inhibition of NorA in Staphylococcus aureus 1199B assessed as accumulation of ethidium bromide at 3.9 ug/ml by measuring fluorescence intensity measured at 5 mins interval for 40 mins by fluorescence spectrophotometry; settings: dose 3.9 µg/ml
[14] = target: T1, Quinolone resistance protein NorA (Staphylococcus aureus); test: Inhibition of NorA in Staphylococcus aureus 1199B assessed as potentiation of 3.1 ug/mL norfloxacin-induced bactericidal activity by measuring log reduction in bacterial count at 7.8 ug/mL measured after 8 hrs by time-kill kinetics assay; settings: dose 7.8 µg/ml
[15] = target: T1, Quinolone resistance protein NorA (Staphylococcus aureus); test: Inhibition of NorA in Staphylococcus aureus 1199B assessed as potentiation of ethidium bromide-induced bactericidal activity at 62.5 ug/ml measured within 8 hrs by time-kill kinetics assay; settings: dose 62.5 µg/ml
[16] = target: T1, Quinolone resistance protein NorA (Staphylococcus aureus); test: Inhibition of NorA in Staphylococcus aureus 1199B assessed as potentiation of norfloxacin-induced morphological changes by measuring appearance of undeveloped cells sticking together at sub MIC by field emission scanning electron microscopy
Staphylococcus aureus [17] = test: Down regulation of NorA gene expression in Staphylococcus aureus 1199B at 3.9 ug/ml measured after 2 hrs by qRT-PCR analysis; type: functional; settings: dose 3.9 µg/ml
Staphylococcus aureus [18] = test: Down regulation of NorA gene expression in Staphylococcus aureus 1199B at 3.1 ug/ml measured after 2 hrs by qRT-PCR analysis relative to control; type: functional; settings: dose 3.1 µg/ml
Staphylococcus aureus [19] = test: Down regulation of NorA gene expression in Staphylococcus aureus 1199B at 3.1 ug/ml measured after 2 hrs in presence of norfloxacin by qRT-PCR analysis relative to norfloxacin; type: functional; settings: dose 3.1 µg/ml
[20] = target: T1, Quinolone resistance protein NorA (Staphylococcus aureus); test: Inhibition of NorA in Staphylococcus aureus 1199B infected human THP-1 cells assessed as potentiation of norfloxacin-induced bactericidal activity by measuring reduction in bacterial count at modulatory concentration measured after 24 hrs; type: cell-based
[21] = target: T1, Quinolone resistance protein NorA (Staphylococcus aureus); test: Inhibition of NorA in Staphylococcus aureus 1199B infected human THP-1 cells assessed as potentiation of norfloxacin-induced bactericidal activity by measuring reduction in bacterial count at modulatory concentration measured after 24 hrs relative to control; type: cell-based
[22] = target: T1, Quinolone resistance protein NorA (Staphylococcus aureus); test: Inhibition of NorA in Staphylococcus aureus 1199B infected human THP-1 cells assessed as potentiation of norfloxacin-induced bactericidal activity by measuring reduction in intracellular invasion at modulatory concentration measured after 24 hrs; type: cell-based
[23] = target: T1, Quinolone resistance protein NorA (Staphylococcus aureus); test: Inhibition of NorA in Staphylococcus aureus 1199B infected human THP-1 cells assessed as potentiation of norfloxacin-induced bactericidal activity by measuring reduction in intracellular proliferation at modulatory concentration measured after 24 hrs; type: cell-based
[24] = target: T1, Quinolone resistance protein NorA (Staphylococcus aureus); test: Inhibition of NorA in Staphylococcus aureus 1199B infected human THP-1 cells assessed as potentiation of 6.2 ug/ml norfloxacin-induced bactericidal activity by measuring log reduction in bacterial count at 15.6 ug/ml measured after 24 hrs relative to control; type: cell-based; settings: dose 15.6 µg/ml
[25] = target: T1, Quinolone resistance protein NorA (Staphylococcus aureus); test: Inhibition of NorA in Staphylococcus aureus 1199B infected human THP-1 cells assessed as potentiation of norfloxacin-induced bactericidal activity by measuring log reduction in bacterial count measured after 24 hrs relative to vancomycin; type: cell-based
[26] = target: T1, Quinolone resistance protein NorA (Staphylococcus aureus); test: Inhibition of NorA in Staphylococcus aureus 1199B assessed as potentiation of 3.1 ug/mL norfloxacin-induced bactericidal activity by measuring log reduction in bacterial count at 3.9 ug/mL measured after 24 hrs by time-kill kinetics assay; settings: dose 3.9 µg/ml
[27] = target: T1, Quinolone resistance protein NorA (Staphylococcus aureus); test: Inhibition of NorA in Staphylococcus aureus 1199B assessed as potentiation of ethidium bromide-induced bactericidal activity at 62.5 ug/ml measured after 24 hrs by time-kill kinetics assay; settings: dose 62.5 µg/ml

Cc1onc(-c2ccccc2)c1C(=O)N[C@@H]1C(=O)N2[C@@H]1SC(C)(C)[C@@H]2C(=O)O [OXACILLIN]
MIC (Staphylococcus aureus [1]): 0.42 µg/mL (≈ 1.05 µM) | MIC (Staphylococcus aureus [2]): 0.1 µg/mL (≈ 0.249 µM) | MIC (Staphylococcus aureus [3]): 0.1 µg/mL (≈ 0.249 µM)

O=C(O)c1cn(C2CC2)c2cc(N3CCNCC3)c(F)cc2c1=O [CIPROFLOXACIN]
MIC (Staphylococcus aureus [1]): 0.21 µg/mL (≈ 0.634 µM) | MIC (Staphylococcus aureus [2]): 0.05 µg/mL (≈ 0.151 µM) | MIC (Staphylococcus aureus [3]): 0.05 µg/mL (≈ 0.151 µM)

Fc1ccccc1C1=NC(c2ccc(Br)cc2)Nc2ccc(Cl)cc21 (stereo not given)
MIC (Staphylococcus aureus [1]): > 1000 µg/mL | MIC (Staphylococcus aureus [2]): 125 µg/mL (≈ 301 µM) | MIC (Staphylococcus aureus [3]): 250 µg/mL (≈ 601 µM)

Fc1ccccc1C1=NC(c2ccccc2)Nc2ccc(Cl)cc21 (stereo not given)
MIC (Staphylococcus aureus [1]): 500 µg/mL (≈ 1480 µM) | MIC (Staphylococcus aureus [2]): 62.5 µg/mL (≈ 186 µM) | MIC (Staphylococcus aureus [3]): 250 µg/mL (≈ 742 µM)

CN1c2ccc(Cl)cc2C(c2ccccc2)=NC1c1ccc([N+](=O)[O-])cc1 (stereo not given)
Flu intensity [4]: 573 | MIC (Staphylococcus aureus [1]): 250 µg/mL (≈ 662 µM) | MIC (Staphylococcus aureus [2]): 125 µg/mL (≈ 331 µM) | MIC (Staphylococcus aureus [3]): 250 µg/mL (≈ 662 µM) | MIC [5]: 6.2 µg/mL | fold change (FC) [6]: 8 | fractional inhibitory concentration index (FICI) [7]: 0.141 | MIC [8]: 6.2 µg/mL | fold change (FC) [9]: 8 | fractional inhibitory concentration index (FICI) [10]: 0.25 | Activity [11]: > 3 log10CFU/ml | viability at 24 h, 50 ug/mL [12]: 83.1% | Flu intensity [13]: 100

GENTAMICIN
MIC (Staphylococcus aureus [1]): 1.7 µg/mL | MIC (Staphylococcus aureus [2]): 0.21 µg/mL | MIC (Staphylococcus aureus [3]): 0.1 µg/mL

CN1c2ccc(Cl)cc2C(c2ccccc2)=NC1c1ccc(Br)cc1 (stereo not given)
Flu intensity [4]: 23600 | MIC (Staphylococcus aureus [1]): 500 µg/mL (≈ 1210 µM) | MIC (Staphylococcus aureus [2]): 125 µg/mL (≈ 304 µM) | MIC (Staphylococcus aureus [3]): 250 µg/mL (≈ 607 µM) | MIC [5]: 6.2 µg/mL | fold change (FC) [6]: 8 | fractional inhibitory concentration index (FICI) [7]: 0.141 | MIC [8]: 3.1 µg/mL | fold change (FC) [9]: 16 | fractional inhibitory concentration index (FICI) [10]: 0.187 | Activity [14]: > 3 log10CFU/ml | inhibition [15]: Active | viability at 24 h, 50 ug/mL [12]: 86.6% | inhibition [16]: Active | Flu intensity [13]: 70.6 | Activity (Staphylococcus aureus [17]): Active | fold change (FC) (Staphylococcus aureus [18]): 8 | fold change (FC) (Staphylococcus aureus [19]): 9 | Activity [20]: 4.47 log10CFU/ml | fold change (FC) [21]: 4 | inhibition [22]: Active | inhibition [23]: Active | FC [24]: 5 | FC [25]: 3

c1ccc(C2=NC(c3ccccc3)Nc3ccccc32)cc1 (stereo not given)
Flu intensity [4]: 3960 | MIC (Staphylococcus aureus [1]): 250 µg/mL (≈ 879 µM) | MIC (Staphylococcus aureus [2]): 125 µg/mL (≈ 440 µM) | MIC (Staphylococcus aureus [3]): 250 µg/mL (≈ 879 µM) | MIC [5]: 3.1 µg/mL | fold change (FC) [6]: 16 | fractional inhibitory concentration index (FICI) [7]: 0.078 | MIC [8]: 3.1 µg/mL | fold change (FC) [9]: 16 | fractional inhibitory concentration index (FICI) [10]: 0.31 | Activity [26]: > 3 log10CFU/ml | inhibition [27]: Active | viability at 24 h, 50 ug/mL [12]: 71% | Flu intensity [13]: 96.1

CN(C)[C@@H]1C(O)=C(C(N)=O)C(=O)[C@@]2(O)C(O)=C3C(=O)c4c(O)cccc4[C@@](C)(O)[C@H]3C[C@@H]12 [TETRACYCLINE]
MIC (Staphylococcus aureus [1]): 0.42 µg/mL (≈ 0.945 µM) | MIC (Staphylococcus aureus [2]): 0.02 µg/mL (≈ 0.045 µM) | MIC (Staphylococcus aureus [3]): 0.1 µg/mL (≈ 0.225 µM)

CC[C@H]1OC(=O)[C@H](C)[C@@H](O[C@H]2C[C@@](C)(OC)[C@@H](O)[C@H](C)O2)[C@H](C)[C@@H](O[C@@H]2O[C@H](C)C[C@H](N(C)C)[C@H]2O)[C@](C)(O)C[C@@H](C)C(=O)[C@H](C)[C@@H](O)[C@]1(C)O [ERYTHROMYCIN]
MIC (Staphylococcus aureus [1]): 0.42 µg/mL (≈ 0.572 µM) | MIC (Staphylococcus aureus [2]): 0.1 µg/mL (≈ 0.136 µM) | MIC (Staphylococcus aureus [3]): 0.1 µg/mL (≈ 0.136 µM)

O=[N+]([O-])c1ccc2c(c1)C(c1ccccc1)=NC(c1ccccc1)N2 (stereo not given)
MIC (Staphylococcus aureus [1]): 500 µg/mL (≈ 1520 µM) | MIC (Staphylococcus aureus [2]): 125 µg/mL (≈ 380 µM) | MIC (Staphylococcus aureus [3]): 250 µg/mL (≈ 759 µM)
